Assay results as given in the NIST ThermoML archive (doi:10.1021/je700152c).
Where “and” joins values, the source holds several entries; their conditions need not be identical. Identical values can stand only once.

Test: molar heat capacity at saturation pressure

CCCCn1cc[n+](C)c1.Cc1ccc(S(=O)(=O)[O-])cc1 [1-butyl-3-methylimidazolium tosylate]
Settings	molar heat capacity
125.01 K, Crystal 2	211.89 J/K/mol
125.12 K, Metastable crystal	219.77 J/K/mol
125.41 K, Crystal 2	212.45 J/K/mol
126.82 K, Crystal 2	214.18 J/K/mol
126.86 K, Crystal 2	214.18 J/K/mol
126.95 K, Metastable crystal	222.38 J/K/mol
127.27 K, Crystal 2	214.65 J/K/mol
128.68 K, Crystal 2	216.45 J/K/mol
128.72 K, Crystal 2	216.36 J/K/mol
128.79 K, Metastable crystal	224.93 J/K/mol
129.12 K, Crystal 2	216.95 J/K/mol
130.54 K, Crystal 2	218.78 J/K/mol
130.57 K, Crystal 2	218.72 J/K/mol
130.63 K, Metastable crystal	227.59 J/K/mol
130.97 K, Crystal 2	219.24 J/K/mol
132.4 K, Crystal 2	221.01 J/K/mol
132.43 K, Crystal 2	221.01 J/K/mol
132.46 K, Metastable crystal	230.26 J/K/mol
132.83 K, Crystal 2	221.54 J/K/mol
134.26 K, Crystal 2	223.47 J/K/mol
134.29 K, Crystal 2	223.34 J/K/mol
134.3 K, Metastable crystal	232.84 J/K/mol
134.69 K, Crystal 2	223.96 J/K/mol
136.12 K, Crystal 2	225.86 J/K/mol
136.14 K, Metastable crystal	235.54 J/K/mol
136.15 K, Crystal 2	225.83 J/K/mol
136.55 K, Crystal 2	226.35 J/K/mol
137.98 K, Crystal 2	228.34 J/K/mol
137.98 K, Metastable crystal	238.37 J/K/mol
138.01 K, Crystal 2	228.37 J/K/mol
138.41 K, Crystal 2	228.74 J/K/mol
139.81 K, Metastable crystal	241.04 J/K/mol
139.84 K, Crystal 2	230.89 J/K/mol
139.87 K, Crystal 2	230.85 J/K/mol
140.27 K, Crystal 2	231.16 J/K/mol
141.65 K, Metastable crystal	243.74 J/K/mol
141.7 K, Crystal 2	233.49 J/K/mol
141.73 K, Crystal 2	233.37 J/K/mol
142.13 K, Crystal 2	233.8 J/K/mol
143.48 K, Metastable crystal	246.44 J/K/mol
143.56 K, Crystal 2	236.57 J/K/mol
143.59 K, Crystal 2	236.07 J/K/mol
143.98 K, Crystal 2	236.57 J/K/mol
145.31 K, Metastable crystal	249.26 J/K/mol
145.41 K, Crystal 2	240.45 J/K/mol
145.44 K, Crystal 2	238.96 J/K/mol
145.83 K, Crystal 2	239.61 J/K/mol
147.15 K, Metastable crystal	251.93 J/K/mol
147.26 K, Crystal 2	246.19 J/K/mol
147.3 K, Crystal 2	242.18 J/K/mol
147.68 K, Crystal 2	243.36 J/K/mol
148.98 K, Metastable crystal	254.72 J/K/mol
149.09 K, Crystal 2	256.71 J/K/mol
149.15 K, Crystal 2	246.16 J/K/mol
149.52 K, Crystal 2	249.76 J/K/mol
150.8 K, Metastable crystal	257.49 J/K/mol
150.89 K, Crystal 2	272.54 J/K/mol
150.98 K, Crystal 2	254.94 J/K/mol
151.34 K, Crystal 2	267.23 J/K/mol
152.63 K, Metastable crystal	260.28 J/K/mol
152.68 K, Crystal 2	270.46 J/K/mol
152.77 K, Crystal 2	286.32 J/K/mol
153.11 K, Crystal 1	287.72 J/K/mol
154.46 K, Metastable crystal	263.04 J/K/mol
154.51 K, Crystal 1	248.64 J/K/mol
154.55 K, Crystal 1	265.74 J/K/mol
154.91 K, Crystal 1	252.18 J/K/mol
156.28 K, Metastable crystal	265.84 J/K/mol
156.37 K, Crystal 1	244.36 J/K/mol
156.4 K, Crystal 1	246.87 J/K/mol
156.77 K, Crystal 1	244.82 J/K/mol
158.1 K, Metastable crystal	268.6 J/K/mol
158.25 K, Crystal 1	245.1 J/K/mol
158.27 K, Crystal 1	245.66 J/K/mol
158.64 K, Crystal 1	245.51 J/K/mol
159.92 K, Metastable crystal	271.3 J/K/mol
160.13 K, Crystal 1	246.75 J/K/mol
160.14 K, Crystal 1	247 J/K/mol
160.51 K, Crystal 1	247.09 J/K/mol
161.74 K, Metastable crystal	273.94 J/K/mol
162 K, Crystal 1	248.58 J/K/mol
162.02 K, Crystal 1	248.64 J/K/mol
162.38 K, Crystal 1	248.95 J/K/mol
163.55 K, Metastable crystal	276.55 J/K/mol
163.88 K, Crystal 1	250.47 J/K/mol
163.89 K, Crystal 1	250.47 J/K/mol
164.25 K, Crystal 1	250.81 J/K/mol
165.36 K, Metastable crystal	279.12 J/K/mol
165.76 K, Crystal 1	252.37 J/K/mol and 252.4 J/K/mol
166.12 K, Crystal 1	252.83 J/K/mol
167.18 K, Metastable crystal	281.64 J/K/mol
167.63 K, Crystal 1	254.38 J/K/mol
167.64 K, Crystal 1	254.38 J/K/mol
168 K, Crystal 1	254.82 J/K/mol
168.99 K, Metastable crystal	284.12 J/K/mol
169.51 K, Crystal 1	256.4 J/K/mol and 256.43 J/K/mol
169.87 K, Crystal 1	256.8 J/K/mol
170.8 K, Metastable crystal	286.54 J/K/mol
171.38 K, Crystal 1	258.48 J/K/mol
171.39 K, Crystal 1	258.39 J/K/mol
171.74 K, Crystal 1	258.82 J/K/mol
172.6 K, Metastable crystal	288.9 J/K/mol
173.25 K, Crystal 1	260.44 J/K/mol
173.26 K, Crystal 1	260.44 J/K/mol
173.61 K, Crystal 1	260.81 J/K/mol
174.41 K, Metastable crystal	291.14 J/K/mol
175.13 K, Crystal 1	262.42 J/K/mol and 262.45 J/K/mol
175.48 K, Crystal 1	262.89 J/K/mol
176.21 K, Metastable crystal	293.28 J/K/mol
177 K, Crystal 1	264.5 J/K/mol
177.01 K, Crystal 1	264.53 J/K/mol
177.35 K, Crystal 1	264.94 J/K/mol
178.02 K, Metastable crystal	295.36 J/K/mol
178.87 K, Crystal 1	266.49 J/K/mol and 266.55 J/K/mol
179.21 K, Crystal 1	266.96 J/K/mol
179.82 K, Metastable crystal	297.28 J/K/mol
180.74 K, Crystal 1	268.51 J/K/mol and 268.63 J/K/mol
181.08 K, Crystal 1	268.91 J/K/mol
181.62 K, Metastable crystal	299.18 J/K/mol
182.6 K, Crystal 1	270.65 J/K/mol
182.94 K, Crystal 1	270.99 J/K/mol
183.43 K, Metastable crystal	301.07 J/K/mol
184.47 K, Crystal 1	272.64 J/K/mol
184.8 K, Crystal 1	273.01 J/K/mol
185.23 K, Metastable crystal	302.81 J/K/mol
186.33 K, Crystal 1	274.72 J/K/mol
186.66 K, Crystal 1	275.06 J/K/mol
187.02 K, Metastable crystal	304.48 J/K/mol
188.19 K, Crystal 1	276.76 J/K/mol
188.51 K, Crystal 1	277.07 J/K/mol
188.82 K, Metastable crystal	306.1 J/K/mol
190.05 K, Crystal 1	278.78 J/K/mol and 278.81 J/K/mol
190.37 K, Crystal 1	279.22 J/K/mol
190.62 K, Metastable crystal	307.62 J/K/mol
191.9 K, Crystal 1	280.86 J/K/mol
191.91 K, Crystal 1	280.89 J/K/mol
192.22 K, Crystal 1	281.33 J/K/mol
192.42 K, Metastable crystal	309.11 J/K/mol
193.75 K, Crystal 1	282.97 J/K/mol
193.77 K, Crystal 1	283 J/K/mol
194.07 K, Crystal 1	283.44 J/K/mol
194.22 K, Metastable crystal	310.72 J/K/mol
195.6 K, Crystal 1	285.05 J/K/mol
195.62 K, Crystal 1	285.05 J/K/mol
195.92 K, Crystal 1	285.39 J/K/mol
196.01 K, Metastable crystal	311.96 J/K/mol
197.45 K, Crystal 1	286.95 J/K/mol
197.47 K, Crystal 1	287.13 J/K/mol
197.77 K, Crystal 1	287.47 J/K/mol
197.81 K, Metastable crystal	313.21 J/K/mol
199.3 K, Crystal 1	289.24 J/K/mol
199.32 K, Crystal 1	289.18 J/K/mol
199.61 K, Crystal 1	289.43 J/K/mol
199.61 K, Metastable crystal	314.45 J/K/mol
201.21 K, Crystal 1	291.45 J/K/mol
201.24 K, Crystal 1	291.48 J/K/mol
201.47 K, Metastable crystal	316.31 J/K/mol
201.52 K, Crystal 1	291.79 J/K/mol
203.18 K, Crystal 1	293.59 J/K/mol
203.21 K, Crystal 1	293.87 J/K/mol
203.39 K, Metastable crystal	317.86 J/K/mol
203.49 K, Crystal 1	293.96 J/K/mol
205.15 K, Crystal 1	295.85 J/K/mol
205.18 K, Crystal 1	296.01 J/K/mol
